Data published in patent US20100028259A1, “USE OF ORGANIC CATION TRANSPORTERS FOR CANCER DIAGNOSIS AND THERAPY” (The Regents of the University of California, priority 2006, published 2010).
Blank lines part the entries; values can stand above or below the compound they belong to.

Key:
[1] = system: HEK-hOCT2 cells; assay: MTT drug sensitivity assay in HEK-hOCT2 cells; type: cell-based, human; settings: same test conditions as oxaliplatin MTT assay in HEK cells
Experimental: (§1) Cytotoxicity of the platinum-based compounds was measured by MTT (thiazolyl blue tetrazolium bromide) assay. Cells were seeded in 100 μl of the culture medium without any antibiotics in 96-well plates at a predetermined cell density. For HEK 293 cells, poly-D-lysine coated plates were used. […] For the OCT inhibitor studies, the inhibitors (i.e., disopyramide or cimetidine) were added to the medium at a specified concentration immediately before the addition of the platinum-based compounds. After incubation for a specified time period, the drug-containing medium was replaced with fresh, drug-free medium and the incubation was continued for a total of 72 hours (start from the addition of platinum-based compounds). Then, the MTT assay was performed similarly as described in Alley et al., Cancer Res., 48:589-601 (1988). […] The maximal cell growth was the cell growth in the medium without any platinum-based compounds; C is the concentration of the platinum-based compound, and γ is the slope factor.
(§2) Briefly, the cells were seeded in 96-well plates at a density of 5,000 cells/well for the transfected MDCK cells or 12,000 cells/well for the transfected HEK 293 cells. The platinum-based drugs were added on the following day. After the specified time periods of drug exposure, the drug-containing medium was replaced with fresh, drug-free medium, and the incubation was continued for a total of 72 hours (start from the time when the drug was added). After incubation, the cell growth was determined by an MTT assay. Data are expressed as mean±SD from 3 to 6 independent experiments with each performed in quadruplicate. The resistance factor (RF) was defined as the ratio of the mean IC50 value in the MOCK cells to that in the OCT-transfected cells.

[2] = target: human OCT3 (Homo sapiens, UniProt O75751); settings: inhibitor 1.5 mM
human OCT3, sequence (O75751 whole entry): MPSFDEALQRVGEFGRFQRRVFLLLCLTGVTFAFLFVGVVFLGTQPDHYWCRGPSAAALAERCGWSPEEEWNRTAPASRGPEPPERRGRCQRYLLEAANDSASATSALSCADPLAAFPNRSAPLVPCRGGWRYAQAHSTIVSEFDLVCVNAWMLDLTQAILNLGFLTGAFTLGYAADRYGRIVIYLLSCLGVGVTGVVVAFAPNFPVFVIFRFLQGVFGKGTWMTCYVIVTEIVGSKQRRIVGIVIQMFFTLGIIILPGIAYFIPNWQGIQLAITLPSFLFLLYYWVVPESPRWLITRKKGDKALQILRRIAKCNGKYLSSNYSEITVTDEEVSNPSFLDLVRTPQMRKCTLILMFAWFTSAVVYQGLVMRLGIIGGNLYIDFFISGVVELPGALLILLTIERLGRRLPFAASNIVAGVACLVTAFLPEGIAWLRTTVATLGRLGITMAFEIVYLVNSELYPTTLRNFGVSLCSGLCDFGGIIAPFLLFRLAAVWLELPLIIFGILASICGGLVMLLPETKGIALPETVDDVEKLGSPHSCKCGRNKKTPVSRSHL
Experimental: (§3) (A) The expression of human OCT1, OCT2, or OCT3 was determined in the cell lines stably transfected with human OCTs (MDCK-hOCT1, HEK-hOCT2, or HEK-hOCT3) or the corresponding empty vectors (MOCK cells) by RT-PCR as described in Example 1. The dog and human GAPDH were used as the expression control for the transfected MDCK and HEK 293 cells, respectively. Lanes 1-6: MDCK-MOCK, MDCK-hOCT1, HEK-MOCK, HEK-hOCT2, HEK-MOCK, and HEK-hOCT3. (B) The cellular uptake of model substrates (TEA for human OCT1 and OCT2; MPP^+ for human OCT3) was determined in OCT-transfected cells (solid bars) and in the corresponding MOCK cells (open bars). Disopyramide (120 μM) was used as an inhibitor for human OCT1 and cimetidine (1.5 mM) was used as an inhibitor for human OCT2 and OCT3. Data are expressed as mean±SD of six measurements.
(§4) MDCK or HEK 293 cells were grown in 24-well plates to >90% confluence in the culture medium without any antibiotics. The poly-D-lysine coated plates were used for HEK 293 cells. The cells were washed with 1×PBS first and then incubated in the uptake buffer (1×PBS) containing 10 μM ^14C-TEA or 2 μM ^3H-MPP^+ as specified. For the OCT inhibitor studies, the indicated OCT inhibitor (i.e., disopyramide or cimetidine) was added to the uptake buffer at specified concentration together with the radioactive substrate. […]

[3] = target: human OCT2 (Homo sapiens, UniProt O15244); settings: inhibitor 1.5 mM
human OCT2, sequence (O15244 whole entry): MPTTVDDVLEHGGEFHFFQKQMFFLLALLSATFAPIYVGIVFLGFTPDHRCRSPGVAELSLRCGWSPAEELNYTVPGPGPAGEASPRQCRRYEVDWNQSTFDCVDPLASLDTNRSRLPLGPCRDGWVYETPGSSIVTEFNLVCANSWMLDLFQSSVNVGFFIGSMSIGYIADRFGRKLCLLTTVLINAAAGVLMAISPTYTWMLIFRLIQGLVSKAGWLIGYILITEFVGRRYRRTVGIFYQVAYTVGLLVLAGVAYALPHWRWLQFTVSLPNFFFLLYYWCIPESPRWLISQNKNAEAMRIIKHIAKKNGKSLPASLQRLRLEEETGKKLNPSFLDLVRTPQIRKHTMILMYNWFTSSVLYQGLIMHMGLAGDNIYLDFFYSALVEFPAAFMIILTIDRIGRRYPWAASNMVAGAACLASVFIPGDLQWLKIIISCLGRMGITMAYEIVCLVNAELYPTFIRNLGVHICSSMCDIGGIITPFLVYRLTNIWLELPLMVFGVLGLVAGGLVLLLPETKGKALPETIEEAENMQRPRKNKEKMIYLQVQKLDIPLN
Experimental: as §3, §4

[4] = pKa values and species distribution of aquated oxaliplatin in incubation buffer; type: physicochemical; settings: PB—SO4 buffer, pH 7.4, calculated from pKa values
[5] = system: MDCK-hOCT1 cells; assay: Platinum-DNA adduct formation in MDCK-hOCT1 cells; type: cell-based, canine; settings: 1 μM, PB—SO4, 25 min
Experimental: (§5) After incubation at 37° C. and 5% CO2 for 2 hours, the cells were washed with ice-cold PBS three times and harvested. The genomic DNA was isolated from the cells and the platinum content associated with DNA was determined by ICP-MS and normalized for DNA content. Data are expressed as mean±SD from a typical experiment performed in triplicate. Two independent experiments were conducted and similar results were obtained.
(§6) After incubation, the cells were washed with ice-cold PBS three times and harvested. Genomic DNA was isolated from the harvested cells and the DNA-associated platinum content was determined by ICP-MS and normalized for the DNA content. Data are expressed as mean±SD of three measurements.
(§7) The platinum content associated with genomic DNA was determined as described in Samimi et al., Clin. Cancer Res., 10:4661-4669 (2004) with some modifications. Briefly, the cells were grown in 100 mm×20 mm dishes in the culture medium without any antibiotics to over 90% confluence. For HEK 293 cells, poly-D-lysine coated dishes were used. Then, the cells were incubated in the culture medium containing the specified concentrations of the platinum-based compounds at 37° C. in 5% CO2 for 2 hours (or 25 min as specified). In some experiments, phosphate buffer (PB: 1.06 mM KH2PO4, 2.97 mM Na2HPO4, pH 7.4) containing 155 mM NaCl (PB—Cl buffer) or 103 mM Na2SO4 (PB—SO4 buffer) was used instead of the culture medium as specified. For the OCT inhibitor study, the incubation medium (buffer) also contained disopyramide or cimetidine). If PB—Cl or PB—SO4 buffer was used, the cells were washed with the same buffer once before drug incubation. After incubation, the cells were washed with ice-cold PBS, scraped, and pelleted. Genomic DNA was isolated from the cell pellets using the Wizard® Genomic DNA Purification Kit (Promega, Madison, Wis.) following the manufacturer's instructions. Briefly, the cells were lysed with Nuclei Lysis Solution. After RNA digestion and protein precipitation, the lysates were centrifuged and the resulting supernatant was aliquoted. The genomic DNA prepared from two different aliquots of the supernatant was used for platinum and DNA content determination, respectively. For the determination of platinum, the DNA samples were treated with 70% nitric acid at 65° C. and diluted in the same way as described above. The platinum content was analyzed using ICP-MS and the DNA content was measured by absorption spectroscopy.

[6] = system: MDCK-MOCK cells; assay: Platinum-DNA adduct formation in MDCK-MOCK cells; type: cell-based, canine; settings: 1 μM, PB—SO4, 25 min
Experimental: as §5, §6, §7

[7] = system: MDCK-hOCT1 cells; assay: MTT drug sensitivity assay in MDCK-hOCT1 cells; type: cell-based, canine; settings: same test conditions as oxaliplatin MTT assay in MDCK cells
Experimental: as §1, §2
Briefly, MDCK cells were seeded at a density of 5,000 cells/well in 96-well plates and exposed to the test compounds for 7 hours on the following day. After incubation for a total of 72 hours, the cell growth was determined by an MTT assay. The data for carboplatin was taken from Table 1 and was not determined simultaneously with the other compounds. The resistance factor (RF) was defined as the ratio of the mean IC50 value in MDCK-MOCK cells to that in MDCK-hOCT1 cells. Data are expressed as mean±SD from six measurements, and each measurement was performed in quadruplicate.

[8] = target: T1, human OCT1 (Homo sapiens, UniProt O15245); assay: Cellular uptake of TEA in MDCK-hOCT1 cells, OCT inhibitor; type: cell-based, canine; settings: inhibitor 120 μM
T1 construct: stably transfected with the full length human OCT1 cDNA (MDCK-hOCT1); expressed in transfected cells
T1 sequence (O15245 1-554): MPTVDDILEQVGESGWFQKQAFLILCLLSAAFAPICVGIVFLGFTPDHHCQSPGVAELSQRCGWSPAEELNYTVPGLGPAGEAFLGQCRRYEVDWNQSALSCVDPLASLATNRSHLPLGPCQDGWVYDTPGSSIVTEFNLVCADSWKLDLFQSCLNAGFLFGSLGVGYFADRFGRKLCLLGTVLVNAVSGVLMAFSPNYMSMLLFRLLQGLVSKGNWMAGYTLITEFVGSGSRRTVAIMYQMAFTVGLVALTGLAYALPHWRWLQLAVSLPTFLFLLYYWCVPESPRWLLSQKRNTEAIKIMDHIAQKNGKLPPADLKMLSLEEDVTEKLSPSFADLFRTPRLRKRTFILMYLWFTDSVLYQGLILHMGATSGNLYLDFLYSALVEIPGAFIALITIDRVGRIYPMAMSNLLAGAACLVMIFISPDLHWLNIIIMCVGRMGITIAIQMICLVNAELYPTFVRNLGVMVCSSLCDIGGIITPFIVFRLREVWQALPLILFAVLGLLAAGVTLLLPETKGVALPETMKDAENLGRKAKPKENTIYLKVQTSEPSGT
Experimental: as §3, §4

effect on uptake of MPP+ in HEK-hOCT3 [2]: substantially decreased
effect on uptake of TEA in HEK-hOCT2 [3]: substantially decreased
SMILES: CN/C(=N/CCSCc1nc[nH]c1C)NC#N [cimetidine]
cytotoxicity of the OCT inhibitor itself (no cytotoxicity up to a concentration of) [1]: > 5 mM

percentage of aqua/hydroxo species [4]: 17.1%
percentage of diaqua species [4]: 82.8%
SMILES: NC1CCCCC1N.O.O.[Pt+2] [[Pt(R,R-DACH)(H2O)2]^2+]
DNA-associated platinum level in MDCK-hOCT1 [5]: 0.0139±0.0020 pmol/μg DNA
rb in MDCK-hOCT1 [5]: 4.59±0.66×10^−6
DNA-associated platinum level in MDCK-MOCK [6]: 0.0142±0.0028 pmol/μg DNA
rb in MDCK-MOCK [6]: 4.69±0.92×10^−6

effect on uptake of TEA in MDCK-hOCT1 [8]: substantially decreased
SMILES: CC(C)N(CCC(C(N)=O)(c1ccccc1)c1ccccn1)C(C)C (centres unmarked) [disopyramide]
cytotoxicity of the OCT inhibitor itself (no cytotoxicity up to a concentration of) [7]: > 400 µM
